Reference: ChEMBL document CHEMBL3085639, “Novel camphane-based anti-tuberculosis agents with nanomolar activity” (2013)
≈ marks a conversion by molar mass, not a printed value. Where a name gives a salt, the structure may show the parent alone.

What was measured:
[1] = tested on: Mycobacterium tuberculosis; experiment: Antimycobacterial activity against Mycobacterium tuberculosis H37Rv assessed as growth inhibition after 45 days by Canetti proportional method; assay type: functional; details: for MIC: Mycobacterium tuberculosis, H37Rv
[2] = tested on: Mycobacterium tuberculosis; experiment: Antimycobacterial activity against Mycobacterium tuberculosis; assay type: functional

With `CC1(C)[C@@H]2CC[C@@]1(C)[C@H](O)[C@@H]2NC(=O)[C@@H](O)c1ccccc1` the “-logMIC” value [1] was 4.783 and the MIC [1] was 16.5 µM (≈ 5.01 µg/mL).
In the case of `CC1(C)[C@@H]2CC[C@@]1(C)[C@H](O)[C@@H]2NC(=O)c1cccnc1`, the “-logMIC” value [1] is reported as 6.444 and the MIC [1] is reported as 0.36 µM (≈ 0.0988 µg/mL).
In the case of `CC[C@@H](CO)NCCN[C@@H](CC)CO` [ETHAMBUTOL], the MIC [2] is reported as 10 µM (≈ 2.04 µg/mL).
For `CC1(C)[C@@H]2CC[C@@]1(C)[C@H](O)[C@@H]2NC(=O)/C=C/c1ccccc1`, the “-logMIC” value [1] was 6.481 and the MIC [1] was 0.33 µM (≈ 0.0988 µg/mL).
`CCNC(=O)N[C@@H]1[C@H]2CC[C@@](C)([C@@H]1O)C2(C)C` was tested, and the “-logMIC” value [1] was 6.387 and the MIC [1] was 0.41 µM (≈ 0.0985 µg/mL).
In the case of `CC1(C)[C@@H]2CC[C@@]1(C)[C@H](O)[C@@H]2NP(=O)(c1ccccc1)c1ccccc1`, the “-logMIC” value [1] is reported as 4.868 and the MIC [1] is reported as 13.6 µM (≈ 5.01 µg/mL).
`CC(=O)Oc1ccccc1C(=O)N[C@@H]1[C@H]2CC[C@@](C)([C@@H]1O)C2(C)C` was tested, and the “-logMIC” value [1] was 6.523 and the MIC [1] was 0.3 µM (≈ 0.0994 µg/mL).
For `CC[C@@H](CO)NCCN[C@@H](CC)CO` [ETHAMBUTOL HYDROCHLORIDE], the MIC [1] was 7.22 µM.
In the case of `CC[C@H](C)[C@H](O)C(=O)N[C@@H]1[C@H]2CC[C@@](C)([C@@H]1O)C2(C)C`, the “-logMIC” value [1] is reported as 5.151 and the MIC [1] is reported as 7.06 µM (≈ 2 µg/mL).
For `CC1(C)[C@@H]2CC[C@@]1(C)[C@H](O)[C@@H]2NC(=O)CCc1ccccc1`, the “-logMIC” value [1] was 6.481 and the MIC [1] was 0.33 µM (≈ 0.0995 µg/mL).
With `CC1(C)[C@@H]2CC[C@@]1(C)[C@H](O)[C@@H]2NC(=O)[C@@H](O)Cc1ccccc1` the “-logMIC” value [1] was 5.201 and the MIC [1] was 6.3 µM (≈ 2 µg/mL).
For `CSCC[C@H](O)C(=O)N[C@@H]1[C@H]2CC[C@@](C)([C@@H]1O)C2(C)C`, the “-logMIC” value [1] was 6.18 and the MIC [1] was 0.66 µM (≈ 0.199 µg/mL).
With `CC1(C)[C@@H]2CC[C@@]1(C)[C@H](O)[C@@H]2NC(=O)c1ccco1` the “-logMIC” value [1] was 6.42 and the MIC [1] was 0.38 µM (≈ 0.1 µg/mL).
For `CC(C)[C@H](O)C(=O)N[C@@H]1[C@H]2CC[C@@](C)([C@@H]1O)C2(C)C`, the “-logMIC” value [1] was 6.131 and the MIC [1] was 0.74 µM (≈ 0.199 µg/mL).
